Measured values: publication PMC3529200 (Bioorganic & medicinal chemistry letters, 2010)

How the values were obtained:
[1] = target: T1, CYP2B6 (Homo sapiens, UniProt P20813); test: CYP inhibition
T1 sequence (P20813 1-491): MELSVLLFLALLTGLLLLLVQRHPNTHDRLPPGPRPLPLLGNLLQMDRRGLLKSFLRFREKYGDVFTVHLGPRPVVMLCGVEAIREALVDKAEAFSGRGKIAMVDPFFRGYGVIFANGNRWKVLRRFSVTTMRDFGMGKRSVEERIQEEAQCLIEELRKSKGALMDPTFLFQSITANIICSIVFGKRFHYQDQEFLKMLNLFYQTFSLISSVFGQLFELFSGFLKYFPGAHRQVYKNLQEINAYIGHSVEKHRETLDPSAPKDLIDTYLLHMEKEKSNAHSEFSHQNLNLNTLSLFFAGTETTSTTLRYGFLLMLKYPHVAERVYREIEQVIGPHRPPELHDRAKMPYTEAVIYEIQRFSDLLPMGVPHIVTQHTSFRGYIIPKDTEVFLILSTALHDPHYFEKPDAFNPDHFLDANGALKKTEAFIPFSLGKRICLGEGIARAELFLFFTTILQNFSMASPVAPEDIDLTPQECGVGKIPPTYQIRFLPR

[2] = test system: CYP2J; test: CYP inhibition
[3] = test system: AngII-induced hypertension; test: AngII-infused rat model of hypertension; type: in vivo, Sprague-Dawley rats; details: 50 mg/kg orally twice daily
[4] = test system: impaired glucose tolerance; test: diet induced-obesity; type: in vivo, C57Bl/6 mice; details: 100 mg/kg oral twice a day, after 4 weeks, ip glucose 2 g/kg 4 hours after dose
[5] = early animal and human dose range finding toxicology studies; cited from earlier work
[6] = cynomolgus monkey pharmacokinetics; details: up to 180 mg/kg in cynomolgus monkeys
[7] = test system: ca.150 other enzyme and receptor targets; test: selectivity panel of ca.150 other enzyme and receptor targets; details: tested at 10 μM
[8] = target: CYP2C9 (Homo sapiens, UniProt P11712); test: CYP inhibition
Chain of CYP2C9 (P11712 whole entry): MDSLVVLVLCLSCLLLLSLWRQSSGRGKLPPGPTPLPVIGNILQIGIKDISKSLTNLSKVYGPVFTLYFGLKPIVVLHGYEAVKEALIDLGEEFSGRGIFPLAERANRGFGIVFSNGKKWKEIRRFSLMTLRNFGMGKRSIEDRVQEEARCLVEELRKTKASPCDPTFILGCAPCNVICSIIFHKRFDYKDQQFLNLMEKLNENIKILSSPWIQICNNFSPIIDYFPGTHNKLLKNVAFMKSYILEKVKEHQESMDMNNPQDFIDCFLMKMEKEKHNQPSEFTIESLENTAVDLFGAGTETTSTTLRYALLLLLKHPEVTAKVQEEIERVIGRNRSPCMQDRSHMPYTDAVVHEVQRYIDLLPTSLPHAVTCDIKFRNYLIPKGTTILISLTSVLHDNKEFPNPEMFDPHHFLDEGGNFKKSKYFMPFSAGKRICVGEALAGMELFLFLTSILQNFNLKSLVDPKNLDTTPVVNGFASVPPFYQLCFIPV

[9] = dog pharmacokinetics; details: up to 500 mg/kg in dogs
[10] = test system: Caco-2 monolayer; test: Caco-2 monolayer permeability
[11] = target: CYP3A4 (Homo sapiens, UniProt P08684); test: CYP inhibition
Chain of CYP3A4 (P08684 whole entry): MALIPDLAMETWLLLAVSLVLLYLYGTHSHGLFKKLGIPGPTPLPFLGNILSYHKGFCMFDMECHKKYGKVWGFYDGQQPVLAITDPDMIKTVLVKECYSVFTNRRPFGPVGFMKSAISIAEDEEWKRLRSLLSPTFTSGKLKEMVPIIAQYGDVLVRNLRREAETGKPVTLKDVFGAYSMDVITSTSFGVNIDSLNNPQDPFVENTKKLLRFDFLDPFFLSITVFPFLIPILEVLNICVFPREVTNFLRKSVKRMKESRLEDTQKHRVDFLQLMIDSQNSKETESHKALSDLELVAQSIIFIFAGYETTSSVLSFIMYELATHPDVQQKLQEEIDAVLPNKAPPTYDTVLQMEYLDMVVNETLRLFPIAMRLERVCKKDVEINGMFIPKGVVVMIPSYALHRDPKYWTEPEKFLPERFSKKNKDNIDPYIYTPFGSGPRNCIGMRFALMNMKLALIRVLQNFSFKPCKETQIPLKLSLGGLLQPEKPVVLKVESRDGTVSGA

[12] = rat pharmacokinetics; details: up to 2000 mg/kg in rats
[13] = test system: CYP2C; test: CYP inhibition
[14] = target: CYP2C19 (Homo sapiens, UniProt P33261); test: CYP inhibition
Chain of CYP2C19 (P33261 whole entry): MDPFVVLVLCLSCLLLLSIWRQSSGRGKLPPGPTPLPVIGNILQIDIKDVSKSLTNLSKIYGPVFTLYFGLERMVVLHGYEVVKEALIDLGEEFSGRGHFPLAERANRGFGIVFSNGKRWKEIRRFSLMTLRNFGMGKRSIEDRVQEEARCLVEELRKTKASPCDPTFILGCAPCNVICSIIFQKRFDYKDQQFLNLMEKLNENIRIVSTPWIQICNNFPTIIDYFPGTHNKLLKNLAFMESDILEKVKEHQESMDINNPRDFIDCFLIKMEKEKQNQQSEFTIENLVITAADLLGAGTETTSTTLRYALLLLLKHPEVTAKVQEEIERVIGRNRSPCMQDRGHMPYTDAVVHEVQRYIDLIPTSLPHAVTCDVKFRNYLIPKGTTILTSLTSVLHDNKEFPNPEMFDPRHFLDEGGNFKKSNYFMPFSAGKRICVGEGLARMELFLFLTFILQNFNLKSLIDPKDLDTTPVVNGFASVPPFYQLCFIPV

[15] = pharmacokinetics, species not specified; details: in vivo
[16] = plasma protein binding
[17] = target: T2, CYP1A2 (Homo sapiens, UniProt P05177); test: CYP inhibition
T2 sequence (P05177 1-516): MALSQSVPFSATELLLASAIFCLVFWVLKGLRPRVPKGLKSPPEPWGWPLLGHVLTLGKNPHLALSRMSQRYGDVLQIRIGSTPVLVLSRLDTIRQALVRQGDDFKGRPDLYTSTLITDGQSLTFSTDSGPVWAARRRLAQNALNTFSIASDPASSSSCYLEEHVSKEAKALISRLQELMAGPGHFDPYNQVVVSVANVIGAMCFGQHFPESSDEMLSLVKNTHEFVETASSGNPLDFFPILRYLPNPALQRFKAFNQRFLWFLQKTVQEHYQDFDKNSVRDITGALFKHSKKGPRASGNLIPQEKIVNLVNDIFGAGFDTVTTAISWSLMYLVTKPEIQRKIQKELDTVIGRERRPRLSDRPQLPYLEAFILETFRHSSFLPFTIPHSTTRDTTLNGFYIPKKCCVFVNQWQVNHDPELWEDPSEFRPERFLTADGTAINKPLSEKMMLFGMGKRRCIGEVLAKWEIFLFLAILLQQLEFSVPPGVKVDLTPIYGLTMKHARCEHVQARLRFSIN

For `CC(=O)N1CCC(NC(=O)NC23CC4CC(CC(C4)C2)C3)CC1` [Compound 14a, 1-(1-Acetyl-piperidin-4-yl)-3-adamantan-1-yl-urea], the “inhibition of CYP2B6” value [1] was “No significant inhibition”, the “inhibition of CYP2J” value [2] was “No significant inhibition” and the “effect on diastolic pressure” value [3] was “more modest effect”. For the same compound, the “glucose AUC versus vehicle-treated animals” value [4] was “lower”, the “maximal glucose excursion versus vehicle-treated animals” value [4] was “lower” and the tolerability [5] was “well tolerated”. For the same compound, the “oral exposure (AUC) versus dose” value [6] was “increased in approximate proportion to dose”, the “inhibitory activity against panel of ca.150 other enzyme and receptor targets” value [7] was “no inhibitory activity” and the “inhibition of CYP2C9” value [8] was “No significant inhibition”. The “oral exposure (AUC) versus dose” value [9] was “increased in approximate proportion to dose”, the “permeability across a Caco-2 monolayer” value [10] was “highly permeable” and the “inhibition of CYP3A4” value [11] was “No significant inhibition”. The “oral exposure (AUC) versus dose” value [12] was “increased in approximate proportion to dose”, the “inhibition of CYP2C” value [13] was “No significant inhibition” and the “inhibition of CYP2C19” value [14] was “No significant inhibition”. For the same compound, the clearance [15] was “relatively moderate to high”, the half life [15] was “short” and the fraction unbound [16] was 0.39 to 0.42. The “inhibition of CYP1A2” value [17] was “No significant inhibition”.
